Results as given in patent US8741807B2 (priority 2011, dated 2014).
Entries after “also recorded” stand apart in the source; their conditions may differ.

Experiments:
Arabidopsis thaliana = assay: Cell death in Arabidopsis thaliana by visual inspection; format: in vivo; conditions: same manner as Example 4, visual inspection, 3 and 7 days
From the text: (§1) It is known that spermidine treatment of leaf blades forms HR (Hypersensitive Response) like cell death spots in various plant species (Plant Physiol., 132(4), pp. 1973-1981, […]).

[1] = tested on: leaf blade of rice plant (variety name: Nipponbare); assay: Cell death spot formation on rice plant leaf blade after dropping spermidine derivative solution; format: in vivo; conditions: for formation of cell death spots: 1 mM aqueous solution (0.1% Tween 20), 5 μl dropped on rice leaf blade, visually evaluated; for severity of cell death compared with the compounds not introduced with hydroxyl group (Lau or ^1N Lau): same manner as Example 4, rice leaf blade
From the text: as §1
The results of examination for severity of cell death are shown in FIG. 12, and those for formation of cell death spots are shown in FIG. 13. The severity of cell death was enhanced by each of the compounds introduced with one hydroxyl group at the terminal carbon atom of the lauroyl group (HydLau: YIS12OH4N, 1NHydLau: YIS12OH1N) compared with the compounds not introduced with hydroxyl group (Lau or ^1N Lau).

[2] = tested on: leaf disks cut out from rice plant leaf blades; assay: Phytoalexin production in rice plant leaf disks immersed in aqueous solution; conditions: 0.5 mM aqueous solution, 72 hours; not so severe compared with copper chloride
[3] = tested on: rice plants at the five-leaf stage; conditions: 5 mM, no inoculation
[4] = tested on: rice blast fungus (Kyu89-246, MAFF101506, race 003.0); format: cell-based; conditions: for antifungal activity against the rice blast fungus: even at the 10 mM concentration; for formation of inhibition ring against the rice blast fungus: filter paper disks, 1 mM, 5 mM or 10 mM, 28° C., 5 to 6 days, light shielding
PR1 gene = PR1 gene expression enhancing action in Arabidopsis thaliana; format: in vivo; conditions: after 24 hours and 72 hours

Molecule: ^1N-nonanoylspermidine [^1N Non]
- cell death in Arabidopsis thaliana (Arabidopsis thaliana): induced severe cell death
- formation of cell death spots [1]: formation of fine cell death spots

Molecule: ^4N-lauroylspermidine
- browning of leaf disks [2]: browning of leaf disks
- phytoalexin accumulation [2]: evident phytoalexin accumulation
- formation of cell death spots [1]: formation of fine cell death spots; also recorded: potent cell death induction effect

Molecule: ^1N-lauroylspermidine [^1N Lau]
- formation of cell death spots [1]: formation of fine cell death spots

Molecule: NCCCCNCCCNC(=O)CCCCCCCCCCCO [YIS12OH1N, 1-N-(12-hydroroxylauroyl)-spermidine]
- cell death in Arabidopsis thaliana (Arabidopsis thaliana): induced severe cell death
- cell death spots when only the test compounds were sprayed [3]: cell death spots were not observed
- antifungal activity against the rice blast fungus [4]: did not have antifungal activity
- formation of inhibition ring against the rice blast fungus [4]: Formation of inhibition ring was not observed
- severity of cell death compared with the compounds not introduced with hydroxyl group (Lau or ^1N Lau) [1]: enhanced

Molecule: NCCCCN(CCCN)C(=O)CCCCCCCCCCCO [YIS12OH4N, ^4N-(12-hydroroxylauroyl)-spermidine]
- cell death in Arabidopsis thaliana (Arabidopsis thaliana): induced severe cell death
- cell death spots when only the test compounds were sprayed [3]: cell death spots were not observed
- antifungal activity against the rice blast fungus [4]: did not have antifungal activity
- formation of inhibition ring against the rice blast fungus [4]: Formation of inhibition ring was not observed
- severity of cell death compared with the compounds not introduced with hydroxyl group (Lau or ^1N Lau) [1]: enhanced
- PR1 gene expression enhancing action relative to 1NHydLau (PR1 gene): about 3 times

Molecule: ^4N-nonanoylspermidine
- formation of cell death spots [1]: formation of fine cell death spots

Molecule: NCCCCNCCCN [Spd, Spermidine, reference compound]
- formation of cell death spots [1]: observed only in a part of the treated leaves
